Test results: patent US20040044006A1, “Methods of use of quinolone compounds against pneumococcal and haemophilus bacteria” (priority 1999, published 2004)
Converted amounts (≈) assume the structure as drawn. “And” between values parts separate entries of the source, which are not always exact repeats. Equal values may be shown once. Read-outs that look alike come from different tables or passages of the source.

Experiments:
[1] = tested on: pneumococci with ciprofloxacin MICs ≧8 μg/ml; test: Quinolone agar dilution MICs of 28 ciprofloxacin resistant pneumococcal strains, correlated with QRDR mutations; format: cell-based, Streptococcus pneumoniae
Method: Additionally these strains were tested for mutations in parC, gyrA, parE, and gyrB (Pan, et al. Antimicrob. Agents Chemother. 40:2321-2326, 1996) and for efflux mechanism (Brenwald, et ail., Antimicrob. Agents Chemother. 42:2032-2035, 1998).
Gemifloxacin susceptibility powder was obtained from SmithKline Beecham Laboratories, Harlow, UK. Agar dilution methodology was performed on 28 strains as described previously (M. R. Jacobs, Clin. Infect. Dis. 15: 119-127, […] and M. R. Jacobs, Rev. Med. Microbiol. 6:77-93, 1995), using Mueller-Hinton altar (BBL Microbiology Systems, Cockeysville, Md.) supplemented with 5% sheep blood. Standard quality control strains, including Streptococcus pneumoniae ATCC 49619, were included in each run of agar dilution MICs.

[2] = tested on: methicillin-susceptible and -resistant Staphylococcus aureus, methicillin-resistant Staphylococcus epidermidis and S. pneumoniae; settings: previous studies; cited from earlier work
[3] = tested on: penicillin susceptible and resistant pneumococcal strains (2 quinolone resistant); test: Time-kill testing of 12 pneumococcal strains; format: cell-based, Streptococcus pneumoniae
Method: For time-kill studies, glass tubes containing 5 ml cation-adjusted Mueller-Hinton broth (Difco)+5% lysed horse blood with doubling antibiotic concentrations were inoculated with 5×10^5 to 5×10^6 cfu/ml and incubated at 35° C. in a shaking water bath. […] Growth controls with inoculum but no antibiotic were included with each experiment (Pankuch, et al., Antimicrob. Agents Chemother. 38:2065-2072, 1994; Pankuch, et al., Antimicrob. Agents Chemother. 40:1653-1656, 1996).
Lysed horse blood was prepared as described previously. The bacterial inoculum was prepared by diluting a 16 h broth (medium as above) culture in the same medium. Dilutions required to obtain the correct inoculum (5×10^5-5×10^6 cfu/ml) were determined by prior viability studies using each strain (Pankuch, et al., Antimicrob. Agents Chemother. 38:2065-2072, 1994; Pankuch, et al., Antimicrob. Agents Chemother. 40: 1653-1656, 1996).
To inoculate each tube of serially diluted antibiotic, 50 μl of diluted inoculum was delivered by pipette beneath the surface of the broth. Tubes were then vortexed and plated for viability counts within 10 min (approximately 0.2 h). The original inoculum was determined by using the untreated growth control. Only tubes containing an initial inoculum within the range of 5×10^5 to 5×10^6 cfu/ml were acceptable (Pankuch, et al., Antimicrob. Agents Chemother. 38:2065-2072, 1994; Pankuch, et al., Antimicrob. Agents Chemother. 40:1653-1656, 1996).
Viability counts of antibiotic-containing suspensions were performed by plating ten-fold dilutions of 0.1 ml aliquots from each tube in sterile Mueller-t-Hinton broth onto trypticase soy agar 5% sheep blood agar plates (BBL). Recovery plates were incubated for up to 72 h. Colony Counts were performed on plates yielding 30-300 colonies. The lower limit of sensitivity of colony counts was 300 cfu/ml (Pankuch, et al., Antimicrob. Agents Chemother. 38:2065-2072, 1994; Pankuch, et al., Antimicrob. Agents Chemother. 40:1653-1656, 1996).
Time-kill assays were analysed by determining the number of strains which yielded a log10 cfu/ml of −1, −2 and −3 at 0, 3, 6, 12 and 24 h, compared to counts at time 0 h. Antimicrobials were considered bactericidal at the lowest concentration that reduced the original inoculum by ≧3 log10 cfu/ml (99.9%) at each of the time periods, and bacteriostatic if the inoculum was reduced by 0-3 log10 cfu/ml. […] The problem of bacterial carryover was addressed as described previously. For macrolide time-kill testing, only strains with MICs≦4.0 μg/ml were tested (Pankuch, et al., Antimicrob. Agents Chemother. 38:2065-9072, 1994; Pankuch, et al., Antimicrob. Agents Chemother. 40:1653-1656, 1996).

With `CO/N=C1\CN(c2nc3c(cc2F)c(=O)c(C(=O)O)cn3C2CC2)CC1CN` (racemic) [Gemifloxacin, (R,S)-7-(3-aminomethyl-4-methoxyiminopyrrolidin-1-yl)-1-cyclopropyl-6-fluoro-4-oxo-1,4-dihydro-1,8-naphthyridine-3-carboxylic acid] the MIC50 ([1]; Streptococcus pneumoniae) was 0.25 µg/mL (≈ 0.642 µM), the MIC90 ([1]; Streptococcus pneumoniae) was 0.5 µg/mL (≈ 1.28 µM) and the MIC ([1]; Streptococcus pneumoniae, read-out: MICs in strains with three or four QRDR mutations, 20 strains, bound holds in all 20 (ciprofloxacin, levofloxacin, sparfloxacin), 19 (grepafloxacin), 10 (trovafloxacin), 18 (gemifloxacin)) was < 0.5 µg/mL. The MIC ([1]; Streptococcus pneumoniae, read-out: MICs in strains with three or four QRDR mutations, 21 strains, bound holds in all 21 (ciprofloxacin, levofloxacin, sparfloxacin), 20 (grepafloxacin), 11 (trovafloxacin), 19 (gemifloxacin)) was ≤ 0.5 µg/mL, the MIC ([1]; Streptococcus pneumoniae, strain 2, ParC S79-Y, ParE I460-V, GyrA None, GyrB None) was 0.06 µg/mL (≈ 0.154 µM) and the MIC ([1]; Streptococcus pneumoniae, strain 3, ParC D83-N, ParE I460-V, GyrA S81-F, GyrB None) was 0.06 µg/mL (≈ 0.154 µM). The MIC ([1]; Streptococcus pneumoniae, strain 3, ParC D83-N, ParE I460-V, GyrA S83-F, GyrB None) was 0.06 µg/mL (≈ 0.154 µM), the MIC ([1]; Streptococcus pneumoniae, strain 4, ParC S79-F, ParE I460-V, GyrA S81-F, GyrB None) was 0.06 µg/mL (≈ 0.154 µM) and the MIC ([1]; Streptococcus pneumoniae, strain 4, ParC S79-F, ParE I460-V, GyrA S83-F, GyrB None) was 0.06 µg/mL (≈ 0.154 µM). For the same molecule, the MIC ([1]; Streptococcus pneumoniae, strain 5, ParC R95-C, ParE D435-N, GyrA S81-F, GyrB None) was 0.125 µg/mL (≈ 0.321 µM), the MIC ([1]; Streptococcus pneumoniae, strain 5, ParC R95-C, ParE D435-N, GyrA S83-F, GyrB None) was 0.125 µg/mL (≈ 0.321 µM) and the MIC ([1]; Streptococcus pneumoniae, strain 6, ParC S79-Y, ParE I460-V, GyrA E85-K, GyrB None) was 0.125 µg/mL (≈ 0.321 µM). It also gave an MIC ([1]; Streptococcus pneumoniae, strain 6, ParC S79-Y, ParE I460-V, GyrA E87-K, GyrB None) of 0.125 µg/mL (≈ 0.321 µM), an MIC ([1]; Streptococcus pneumoniae, strain 7, ParC None, ParE I460-V, GyrA None, GyrB None) of 0.125 µg/mL (≈ 0.321 µM) and an MIC ([1]; Streptococcus pneumoniae, strain 8, ParC S79-Y, ParE None, GyrA None, GyrB None) of 0.125 µg/mL (≈ 0.321 µM). It also gave an MIC ([1]; Streptococcus pneumoniae, strain 9, ParC S79-Y, ParE None, GyrA None, GyrB None) of 0.125 µg/mL (≈ 0.321 µM), an MIC ([1]; Streptococcus pneumoniae, strain 10, ParC S79-F, ParE I460-V, GyrA S81-C, GyrB None) of 0.125 µg/mL (≈ 0.321 µM) and an MIC ([1]; Streptococcus pneumoniae, strain 10, ParC S79-F, ParE I460-V, GyrA S83-C, GyrB None) of 0.125 µg/mL (≈ 0.321 µM). It also gave an MIC ([1]; Streptococcus pneumoniae, strain 11, ParC S79-F, ParE I460-V, GyrA S81-F, GyrB None) of 0.125 µg/mL (≈ 0.321 µM), an MIC ([1]; Streptococcus pneumoniae, strain 11, ParC S79-F, ParE I460-V, GyrA S83-F, GyrB None) of 0.125 µg/mL (≈ 0.321 µM) and an MIC ([1]; Streptococcus pneumoniae, strain 12, ParC S79-F, ParE I460-V, GyrA None, GyrB D435-N) of 0.125 µg/mL (≈ 0.321 µM). It also gave an MIC ([1]; Streptococcus pneumoniae, strain 27, ParC S79-Y, ParE I460-V, GyrA S81-F, GyrB None) of 1 µg/mL (≈ 2.57 µM), an MIC ([1]; Streptococcus pneumoniae, strain 27, ParC S79-Y, ParE I460-V, GyrA S83-F, GyrB None) of 1 µg/mL (≈ 2.57 µM) and an MIC ([1]; Streptococcus pneumoniae, strain 28, ParC D83-G N91-D, ParE None, GyrA S81-F S114-G, GyrB None) of 1 µg/mL (≈ 2.57 µM). For the same molecule, the MIC ([1]; Streptococcus pneumoniae, strain 28, ParC cell empty, ParE None, GyrA S83-F and S116-G, GyrB None) was 1 µg/mL (≈ 2.57 µM), the MIC Range ([1]; agar dilution, 28 strains with ciprofloxacin MICs ≧8.0 μg/ml) was 0.03 to 1.0 µg/mL and the “fold more active than ciprofloxacin, ofloxacin, sparfloxacin and trovafloxacin” value [2] was 32 to 64 fold and 32-64 fold. For the same molecule, the “concentration at which bactericidal after 24 h” value ([3]; 12 penicillin susceptible and resistant pneumococcal strains, 24 h, bactericidal = ≧3 log10 cfu/ml (99.9%) reduction) was 2 ×MIC, the “concentration at which uniformly bactericidal after 24 h” value ([3]; all 12 strains, 24 h) was ≤ 0.5 µg/mL and the “bactericidal activity for the two quinolone resistant pneumococcal strains” value ([3]; two quinolone resistant strains) was “bactericidal at the microbroth MIC”.
